Patent US5976797A, “Method for quantifying total mRNA with poly(A)-complementary oligonucleotide-immobilized microtiter plate” (Hitachi Chemical Co., Ltd., priority 1996, dated 1999)
Values after ≈ are worked out from the molar mass of the structure shown.

What was measured:
[1] = tested on: U937 human histiocytic lymphomas cell line; assay: MTT assay, U937 cells; type: cell-based; settings: for IC50 (MTT) / IC50: mean ± SD, n = 4; for IC50: Homo sapiens, U-937
Procedure: (§1) The CaR-1 human colon cancer cell line (JCRB0207) was a gift from Dr. K. Miyazaki (Kihara Institute for Biological Research, Yokohama, Japan). YOYO-1™ was purchased from Molecular Probes (Eugene, Oreg.). All other chemicals were purchased from Sigma (St. Louis, Mis.). Oligonucleotides were synthesized by a synthesizer (Applied Biosystems, San Jose, Calif.) according to the manufacturer's protocol.
(§2) U937, HL-60 and CaR-1 cells were grown in RPMI 1640 containing 50 units/ml penicillin, 50 μg/ml streptomycin, and 10% FCS at 37° C. in 5% CO2, 95% air. HepG2 cells were grown in Eagle's minimum essential medium (MEM) with 0.1 mM nonessential amino acids, 1 mM sodium pyruvate and Earle's balance solution (BSS). Floating cells were subcultured two to three times a week and adherent cells were removed by trypsinization and subcultured two to four times a month. Initial cell viability was always more than 95% as assessed by the exclusion of trypan blue (Ausubel et al., Current Protocols in Molecular Biology, John Wiley & Sons 1988; 11.5.1-11.5.2). The number of cells was determined in a hemocytometer.
(§3) The following drugs have been tested using the reported peak plasma concentrations (PPCs) achieved during intravenous administration of clinical doses (Werner et al., Cancer Treat Rep 1986; 70:1379-1382). […] The drugs were tested at 0.001, 0.01, 0.1, 1.0 and 10× PPC. Vinblastine was occasionally tested at 100× PPC.
(§4) Cells were suspended in medium supplemented with 10% FCS, and 100 μl of single cell suspension containing 1×10^5 cells were added to the individual wells on 96 well microtiter plates. One hundred μl of anticancer drugs were added to each well to give the final concentrations as indicated above. The plates were incubated at 37° C. in a humidified atmosphere containing 5% CO2 in air for various periods. Twenty μl of 0.25% MTT in PBS was added to each well, and plates were incubated for an additional three hours. After centrifugation, supernatant solutions were removed and 200 μl of dimethyl sulfoxide were added to dissolve formazon products, and the plates were shaken for five minutes on a plate shaker (IS-963, Tomy, Palo Alto, Calif.). The absorbance of the well was read on a microplate spectrophotometer (Thermo max, Molecular Device, Mountain View, Calif.) using wavelength at 560 nm.
(§5) Chemosensitivity was assessed for both continuous drug exposure and transient exposure (two hours). Total cytosolic poly(A)+ mRNA was measured as described in the Methods.
(§6) U937 cells were seeded at a density of 1×10^6 cells/ml in RPMI containing 10% FCS in a 96-well plate for MTT assay (.gradient.,.quadrature.) and a 24-well plate for the mRNA assay (.circle-solid.,.tangle-soliddn.). […] The values indicated in the means±standard error of triplicate determinations from a single experiment. Similar results were reproduced in more than three independent experiments (data not shown). […] MTT and mRNA assays were carried out as described in the Methods. The data obtained from the three-day MTT assay with 1× PPC (x-axis) were compared with those of the 12-hour mRNA assay with 10× PPC (y-axis). FIG. 8D (Total) is a mixture of FIGS. 8A-8C. Each point represents the means of triplicate determinations.

[2] = tested on: U937 human histiocytic lymphomas cell line; assay: total mRNA assay (GENEPLATE, YOYO-1), U937 cells; type: cell-based; settings: mean ± SD, n = 4; for IC50: Homo sapiens, U-937
Procedure: as §1, §2
The drugs were tested at 0.001, 0.01, 0.1, 1.0 and 10× PPC. Vinblastine was occasionally tested at 100× PPC.
(§7) Detailed procedures were described in our previous publication (Tominaga et al., Clin. Chem. 1996; 42:11, 1750-1757). In brief, 1 ml of cell suspension containing 5×10^5 cells were plated to each well of 12-well tissue culture plates for various periods, and each drug was exposed continuously or for two hours. Harvested cultured cells were washed with PBS one to two times. Cells were then resuspended in 200 μl of diethylpyrocarbonate (DEPC) -treated lysis buffer (10 mM Tris, pH7.5, 1 mM EDTA, 0.5M NaCl, 0.5% NP-40 and 20 mM VRC for five minutes on ice, then immediately centrifuged at 15,000 xg at 4° C. for five minutes. Fifty μl each of the supernatant was applied to the GENEPLATE™ (oligonucleotide-immobilized microplate) (Mitsuhashi et al., Nature 1992, 357:519-520). After one hour incubation at room temperature, unbound non-mRNA was removed by aspiration and washed with a low salt buffer (10 mM Tris, pH 7.6, 1 mM EDTA, 0.1 M naCl) three times. Fifty μl of YOYO-1™ in the final dilution of 1:1000 in TAE buffer (40 mM Tris-acetate, pH 8.0, 1 mM EDTA) was added to each well, and the fluorescence intensity of each well was measured by a fluorescent plate reader (CytoFlour™ 2300, Millipore, Bedford, Mass.) with excitation and emission wavelengths of 485 nm (bandwidth 20 nm) and 530 nm (bandwidth 25 nm), respectively, as previously described (Glazer et al., Nature 1992;359:859-861 and Ogura et al., Biotechniques 1994; 18:231-232).
as §5, §6

[3] = tested on: HL-60 human promyelocytic leukemia cell line; assay: MTT assay, HL-60 cells; type: cell-based; settings: mean ± SD, n = 4; for IC50: Homo sapiens, HL-60
Procedure: as §1, §2, §3, §4, §5

[4] = tested on: HL-60 human promyelocytic leukemia cell line; assay: total mRNA assay (GENEPLATE, YOYO-1), HL-60 cells; type: cell-based; settings: mean ± SD, n = 4; for IC50: Homo sapiens, HL-60
Procedure: as §1, §2, §3, §7, §5

[5] = tested on: CaR-1 human colon cancer cell line; assay: MTT assay, CaR-1 cells; type: cell-based; settings: mean ± SD, n = 4; for IC50: Homo sapiens
Procedure: as §1, §2, §3, §4, §5

[6] = tested on: CaR-1 human colon cancer cell line; assay: total mRNA assay (GENEPLATE, YOYO-1), CaR-1 cells; type: cell-based; settings: mean ± SD, n = 4; for IC50: Homo sapiens
Procedure: as §1, §2, §3, §7, §5

[7] = tested on: HepG2 human hepatocellular line; assay: MTT assay, HepG2 cells; type: cell-based; settings: mean ± SD, n = 4; for IC50: Homo sapiens
Procedure: as §1, §2, §3, §4, §5

[8] = tested on: HepG2 human hepatocellular line; assay: total mRNA assay (GENEPLATE, YOYO-1), HepG2 cells; type: cell-based; settings: mean ± SD, n = 4; for IC50: Homo sapiens
Procedure: as §1, §2, §3, §7, §5

U937 cells = assay: quantification of cytosolic mRNA after PMA-induced differentiation, U937 cells; type: cell-based, human
Source text: (§8) We obtained from the respective suppliers human Jurkat, Molt-4, U937, and HL-60 cells (American Type Culture Collection, Rockville, Md.); MICROFAST TRACK™ 228 Kit (mRNA purification kit using oligo-(dT) cellulose, (Invitrogen, San Diego, Calif.); cell culture media, fetal calf serum, (FCS: fatal calf serum), phosphate-buffered saline (PBS: phosphate-buffered saline), rabbit globin mRNA, and vanadyl-ribonucleosidecomplex (VRC: vanadyl-ribonucleoside complex; Gibco-BRL, Baithersburg, Md.); Isolymph (Gallard-Schlesinger, Carle Place, N.Y.); calf thymus DNA (Clontech, Palo Alto, Calif.); DNase (Boehringer Mannheim, Indianapolis, Ind.); RNase (Stratagene, La Jolla, Calif.); and GENEPLATE™ (oligonucleotide-immobilized microplate,(Hitachi Chemical Research Center, Irvine Calif. and Hitachi Chemical Co., Ibaraki, Japan). All other chemicals were purchased from Sigma Chemical Co. (St. Louis, Mis.). Oligonucleotides were synthesized by a synthesizer (Applied Biosystems, San Jose, Calif.), according to the manufacturer's protocol.
(§9) Human Jurkat and Molt-4 cells were grown in RPMI 1640 containing 100 U/mL penicillin, 100 μg/mL streptomycin, and 100 mL/L FCS at 37° C. in CO2 :air, 5:95 (by vol). […] Each cell line was subcultured two to three times a week, and viability was always >90%, as assessed by the exclusion of trypan blue. The number of cells was determined with a hemocytometer. […]

HL-60 cells = assay: quantification of cytosolic mRNA after PMA-induced differentiation, HL-60 cells; type: cell-based, human
Source text: as §8, §9

[9] = U937, continuous exposure 72 hours
[10] = U937, transient exposure 2 hours
[11] = HL60, continuous exposure 72 hours
[12] = HL60, transient exposure 2 hours
[13] = CaR-1, continuous exposure 72 hours
[14] = CaR-1, transient exposure 2 hours
[15] = HepG2, continuous exposure, printed 82 hours
[16] = HepG2, transient exposure 2 hours
[17] = 48 h after PMA treatment (160 nmol/L), n=8, P<0.01
[18] = phorbol ester-induced differentiated

Compound	IC50 [1, 9] [µg/mL]	IC50 [1, 10] [µg/mL]	IC50 [2, 9] [µg/mL]	IC50 [2, 10] [µg/mL]	IC50 [3, 11] [µg/mL]	IC50 [3, 12] [µg/mL]	IC50 [4, 11] [µg/mL]	IC50 [4, 12] [µg/mL]	IC50 [5, 13] [µg/mL]	IC50 [5, 14] [µg/mL]	IC50 [6, 13] [µg/mL]	IC50 [6, 14] [µg/mL]	IC50 [7, 15] [µg/mL]	IC50 [7, 16] [µg/mL]	IC50 [8, 15] [µg/mL]	IC50 [8, 16] [µg/mL]	also measured
N.N.[Cl][Pt][Cl] [Cisplatin, cisplatin]																	time after drug treatment at which similar reduction was observed, MTT assay ([1]; U937, 10× PPC, continuous exposure): 48 h; IC50 (MTT) [1, 9]: 1.77 ± 0.05 µg/mL; IC50 (MTT) [1, 10]: 22.65 ± 0.03 µg/mL; IC50 (mRNA) [2, 9]: 1.58 ± 0.39 µg/mL; IC50 (mRNA) [2, 10]: 18.52 ± 4.69 µg/mL; IC50 (MTT) [3, 11]: 1.14 ± 0.01 µg/mL; IC50 (MTT) [3, 12]: 12.68 ± 0.30 µg/mL; IC50 (mRNA) [4, 11]: 1.21 µg/mL; IC50 (mRNA) [4, 12]: 9.30 µg/mL; IC50 (MTT) [5, 13]: 3.08 ± 0.54 µg/mL; IC50 (MTT) [5, 14]: > 20 µg/mL; IC50 (mRNA) [6, 13]: 3.09 ± 0.34 µg/mL; IC50 (mRNA) [6, 14]: > 20 µg/mL; IC50 (MTT) [7, 15]: 8.86 ± 0.40 µg/mL; IC50 (MTT) [7, 16]: > 20 µg/mL; IC50 (mRNA) [8, 15]: 9.81 ± 0.64 µg/mL; IC50 (mRNA) [8, 16]: > 20 µg/mL
CO[C@@]12[C@H](COC(N)=O)C3=C(C(=O)C(C)=C(N)C3=O)N1C[C@@H]1N[C@@H]12 [Mitomycin C, mitomycin C]	0.29 ± 0.01 (≈ 0.867 µM)	2.46 ± 0.04 (≈ 7.36 µM)	0.23 ± 0.03 (≈ 0.688 µM)	2.01 ± 0.11 (≈ 6.01 µM)	0.045 (≈ 0.135 µM)	1.34 ± 0.01 (≈ 4.01 µM)	0.22 ± 0.01 (≈ 0.658 µM)	2.29 (≈ 6.85 µM)	2.12 ± 0.08 (≈ 6.34 µM)	21.3 (≈ 63.7 µM)	2 ± 0.16 (≈ 5.98 µM)	21.3 ± 0.95 (≈ 63.7 µM)	2.08 ± 0.09 (≈ 6.22 µM)	24.2 ± 0.81 (≈ 72.4 µM)	1.89 ± 0.06 (≈ 5.65 µM)	36.9 (≈ 110 µM)	
CCCCCCCCCCCCCC(=O)O[C@@H]1[C@@H](C)[C@@]2(O)[C@@H](C=C(CO)C[C@]3(O)C(=O)C(C)=C[C@@H]23)[C@@H]2C(C)(C)[C@]12OC(C)=O [PMA, phorbol 12-myristate 13-acetate]																	mRNA content in 10^6 differentiated U937 cells (U937 cells; [17]): 145.3±13.9 μg/mL; amount of cytosolic mRNA in differentiated U937 cells (U937 cells; [18]): 145.3±13.9 ng/10^6 cells; mRNA content in 10^6 differentiated HL-60 cells (HL-60 cells; [17]): 164.7±11.6 μg/mL; amount of cytosolic mRNA in differentiated HL-60 cells (HL-60 cells; [18]): 164.7±11.6 ng/10^6 cells
CC[C@]1(O)C[C@@H]2CN(CCc3c([nH]c4ccccc34)[C@@](C(=O)OC)(c3cc4c(cc3OC)N(C)[C@H]3[C@@](O)(C(=O)OC)[C@H](OC(C)=O)[C@]5(CC)C=CCN6CC[C@]43[C@@H]65)C2)C1 [Vinblastine, vinblastine]	< 0.0005	0.034 ± 0.003 (≈ 0.0419 µM)	< 0.0005	0.029 ± 0.001 (≈ 0.0358 µM)	< 0.0005	0.026 ± 0.001 (≈ 0.0321 µM)	< 0.0005	0.031 (≈ 0.0382 µM)	22.2 ± 14.4 (≈ 27.3 µM)	> 50	34.9 ± 4.8 (≈ 43 µM)	> 50	32.6 ± 8.46 (≈ 40.2 µM)	> 50	3.45 ± 0.63 (≈ 4.25 µM)	34.6 ± 1.75 (≈ 42.7 µM)	
